Assay results reported in patent US20260183274A1, “PDK1 REGULATORY COMPOUND AND COMPOSITION CONTAINING THE SAME” (PROVIBIO CO., LTD., priority 2024, published 2026).

Assays:
[1] = system: MRL/lpr mice; assay: Lupus animal model (MRL/lpr mice); assay type: in vivo, mouse; conditions: for Hair growth on the facial region: 41-week-old female MRL/lpr, GO15F 30 mg/kg, GO48 1 mg/kg, GO88 0.5 mg/kg i.p. once daily, FIG. 24
Excerpt: The MRL/MpJ-Faslpr/J (Hereinafter Referred to as “MRL/lpr”) used in this experiment is one of the representative animal models for systemic lupus erythematosus (SLE), known to produce various autoantibodies, including antinuclear antibodies, due to the lpr (lymphoproliferation) gene.
In this invention, the period up to 9 weeks of age was considered the pre-disease stage, and the period after 23 weeks of age was considered the post-disease stage, and efficacy verification experiments using this model were conducted.
MRL/lpr mice were imported from The Jackson Laboratory and acclimatized for one week in an SPF (Specific Pathogen Free) facility maintained at a temperature of 21-24° C., humidity of 40-60%, and a 12-hour light-dark cycle (lights on at 7:00 AM, lights off at 7:00 PM).
Subsequently, female and male MRL/lpr mice were mated at a ratio of 2:1 in the same facility, and the female offspring were administered the compound GO15F of the present invention or vehicle at a dose of 30 mg/kg […]
Urine samples were collected once a week from each individual and used for analytical experiments. […]
The protein concentration in urine collected weekly from the control group or experimental group was analyzed using ‘Quick Start™ Bradford 1× Dye Reagent (Bio-Rad, Cat. #5000205).’
In each well of a 96-well plate, 5 μl of urine sample diluted with triple-distilled water and 250 μl of 1× dye reagent were added, reacted, and the absorbance was measured at 595 nm. […]
Each kidney tissue was used to isolate total RNA using TRIzol™ (Invitrozen, Cat. #15596018). RNA from each mouse was quantified at 1 μg using a micro-quantitative spectrophotometer (ThermoFisher Scientific, ND2000) and cDNA was synthesized.
The synthesized cDNA from each mouse was quantified to a concentration of 50 ng using a micro-quantitative spectrophotometer, and qPCR was performed for the cytokines ‘IL-2, IL-6, IL-10, IL-17, TNF-α, IFN-γ’ using a SYBR green probe (CFX96, BIO-RAD).
To investigate the effects of drug administration on renal tissue in MRL/lpr mice, the tissue was fixed in 10% neutral buffered formalin at room temperature, followed by stepwise ethanol penetration for dehydration. The tissue was then embedded in xylene and paraffin.
The blocked tissues were sectioned into 4 μm thick slices using a microtome, followed by deparaffinization, hydration, and staining.
Hematoxylin & Eosin staining, PAS staining, and Masson trichrome staining were performed for pathological evaluation of the tissues.
To determine the extent of IgG deposition in kidney tissue of MRL/lpr mice, immunofluorescence staining was performed using anti-IgG antibodies on paraffin-embedded kidney tissue sections, and the staining results were examined using a fluorescence microscope.
Additionally, in 41-week-old female MRL/lpr mice, the compounds GO15F (30 mg/kg), GO48 (1 mg/kg), and GO88 (0.5 mg/kg) were administered intraperitoneally once daily.
To confirm the proliferative activity of hair follicle cells in the skin tissue of these mice, the mice were sacrificed 14 days after administration of the compounds of the present invention, and Ki-67 immunohistochemistry (IHC) was performed.
For this purpose, the excised skin tissue was fixed in formalin, embedded in paraffin blocks, and stained with a Ki-67-specific antibody on tissue sections prepared as slides.

[2] = system: BALB/c mice with induced psoriasis; assay: Psoriasis animal model (Aldara cream, Imiquimod); assay type: in vivo, mouse
Protocol: To verify the therapeutic effect of the compound according to the present invention on psoriasis, a psoriasis animal model was established as follows, and the compound according to the present invention was administered to evaluate the alleviation of skin lesions and changes in immune cell patterns.
For the establishment of the psoriasis animal model, BALB/c mice (7 weeks old, female, 20 g) were purchased from HanabioTech Co., Ltd. and acclimatized to the rearing environment for one week.
Subsequently, the hair on the mouse back was shaved using a hair removal device for the first time, and then completely shaved using a depilatory cream (Nicrin Cream (80% thioglycolic acid, Il Dong Pharmaceutical)) for the second time. The mice were then kept for 24 hours to confirm the absence of skin damage.
[Normal control group (Normal, Not Treatment), psoriasis-induced control group (Psoriasis, Not Treatment), psoriasis-induced vehicle control group (Psoriasis, Vehicle), experimental group (GO85, GO86, GO88, GO89, PBK-2024-010, PBK-2024-026, PBK-2025-002, PBK-2025-004, PBK-2025-016, PBK-2025-017, PBK-2025-023)]. […]
Body weights of mice in each group were measured on days 1, 4, and 8 after the start of injection and psoriasis induction. […]
To evaluate the therapeutic effect in a psoriasis-induced mouse model, the PASI (Psoriasis Area and Severity Index) score was measured.
The PASI score is based on three criteria: erythema, scaling, and skin thickness, each scored from 0 (none) to 4 (severe). […]
Observations were conducted daily at the same time, and the same observer visually assessed each criterion and recorded the scores, with the results presented in FIG. 13. […]
All samples were measured in duplicate, and the absorbance was measured at 450 nm using a microplate reader.

| Compound | Hair growth on the facial region [1] | Efficacy in improving dermatological symptoms [2] | other results |
| --- | --- | --- | --- |
| Nc1ncccc1C(=O)NCCCCCCCCCCCCN1CCOCC1 [Compound 2, 2-Amino-N-(12-morpholin-4-yl-dodecyl)-nicotinamide] | hair growth was confirmed |  |  |
| CC1(C)CN(CCCCCCCCCCCCC(=O)Nc2nc(N)c3[nH]cnc3n2)CCO1 [Compound 11, 12-[4-(2,2-dimethylmorpholin-4-yl)]dodecyl-N-(6-aminopurine-2-yl) carboxamide] |  | excellent efficacy in improving dermatological symptoms |  |
| Nc1ncccc1C(=O)NCCCCCCCCCCCCN1CCNCC1 [Compound 14, 2-Amino-N-(12-(piperazin-1-yl)dodecyl)nicotinamide] | hair growth was confirmed | excellent efficacy in improving dermatological symptoms |  |
| Nc1nc(NC(=O)CCCCCCCCCCCCN2CCN(CCO)CC2)nc2nc[nH]c12 [Compound 15, 12-[4-(2-hydroxyethyl)piperazin-1-yl]dodecyl-N-(6-aminopurine-2-yl) carboxamide] |  | excellent efficacy in improving dermatological symptoms |  |
| Nc1ncccc1C(=O)NCCCCCCCCCCCCF [Compound 57, 2-Amino-N-(12-fluoro-dodecyl)-nicotinamide] | hair growth was confirmed |  | Protein concentration in urine (proteinuria) ([1]; 30 mg/kg once daily, vs control MRL/lpr, FIG. 16): significantly lower than that in the control group; B cells, T cells and macrophages in spleen (flow cytometry) ([1]; FIG. 19): reduced the increased B cells, T cells, and macrophages; IgG deposition in kidney tissue (immunofluorescence) ([1]; FIG. 22): significantly lower; Renal pathological tissue staining (glomerular capillary loops) ([1]; H&E, PAS, Masson trichrome, FIG. 21): the glomerular capillary loops were well maintained; Concentration of anti-dsDNA IgG in blood ([1]; serum at necropsy (23 weeks), vs control MRL/lpr, FIG. 17): significantly lower; Total IgG concentration in blood ([1]; serum at necropsy, vs control MRL/lpr, FIG. 18): significantly lower |
